# Key:
# [1] = tested on: cIAP2 mRNA; experiment: cIAP2 mRNA level in Colo205 cells; format: cell-based; settings: MS-275 alone
# [2] = tested on: TNFα mRNA; experiment: TNFα mRNA by semiquantitative RT-PCR in Colo205 cells; format: cell-based, human
# Description: (§1) This procedure describes the semi-quantitative measurement of human TNFα mRNA levels in human cell culture.
# (§2) Cell Treatment: cells were plated in 6 well dishes at 1.5×10^5 cells/ml in a volume of 2.5 ml, next day cells were treated −/+50 ul of 5 μM Smac Mimetic, JP1010, (final concentration: 100 nM) for 4 hr.
# (§3) RNA Isolation: cells were washed 2× with 2 ml PBS followed by isolation of RNA from 6 well dishes using Qiagen RNAeasy kit or TRIzol reagent (Invitrogen) according to manufacturer's protocol. RNA isolation with TRIzol was conducted by adding 1 ml of TRIzol reagent to each well and pipetting up and down several times before transferring lysate to 1.5 ml microfuge tube. […] RNA concentration was measured. […]
# (§4) Semi-quantitative RT-PCR for TNFα and Actin were performed as follows: Control semi-quantitative Actin PCR were conducted in a 25 ul reaction mixture with the following cycle condition: 94° C. […] TNFa semi quantitative PCR were conducted in a 25 ul reaction mixture with the following cycle conditions: 94° C.-2 min, 30-35 cycles (depending on cell line) of 94° C.-30 sec, 59° C.-30 sec, 72° C.-1 min, followed by 72° C. for 10 min. […]
# [3] = tested on: acetylated Histone H4 levels at the TNFα locus; experiment: ChIP of acetylated histone H4 at the TNFα locus in MDA-MB231 cells; format: cell-based; settings: 5 mM NaBu
# Description: Purpose: This procedure evaluates the localization of specific proteins or their modified forms on chromatin. For our purpose to specifically evaluate the levels of modified histones and cofactors bound to the Tumor Necrosis Factor (TNFa) gene promoter.
# ChIP Lysis buffer contained 1% SDS, 10 mM EDTA, 50 mM Tris-HCl, pH8.1, 1× protease inhibitor cocktail (Roche). ChIP Dilution buffer contained 1% Triton x-100, 2 mM EDTA, 150 mM NaCl, 20 mM Tris-HCl, pH8.1, 1× protease inhibitor cocktail (Roche). Wash Buffer I contained 0.1% SDS, 1% Triton x-100, 2 mM EDTA, 150 mM NaCl, 20 mM Tris-HCl, pH8.1. Wash Buffer II contained wash buffer I with 500 mM NaCl. Wash Buffer III contained 0.25M LiCl, 1% NP-40, 1% deoxycholate, 1 mM EDTA, 10 mM Tris-HCl, pH8.1. TE buffer contained 10 mM Tris-HCl, pH 7.5, 0.1 mM EDTA. ChIP Extraction buffer contained 1% SDS, 0.1M NaHCO3. Antibodies used include anti-histone H3 (Abcam, ab1791), anti-hyperacetylated histone H4 (Millipore, 06-946), anti-dimethyl-histone H3k4 (Millipore, 07-030), anti-dimethyl histone H3K9 (Abcam, ab1220), anti-histone H4 (Millipore, 05-858), anti-acetylated H3 (Millipore, 06-599), anti-acetylated H4 (Millipore, 06-866).
# Cells were plated on either 10 cm or 15 cm tissue culture dishes (˜1×10^6). At 80-100% confluency cells were crosslinked by the addition of 37% formaldehyde (final concentration 1%) directly to the cell medium. […]
# [4] = tested on: TNFα mRNA; experiment: TNFα mRNA by RT-PCR in H2073 cells; format: cell-based, human; settings: FIG. 5 legend
# Description: as §1, §2, §3, §4
Compound,mRNA level of cIAP2 [1],Smac mimetic-induced TNFα production ([2]; FIG. 4 legend),production of TNFα mRNA ([2]; agent alone),increase of the level of acetylated H4 [3],Smac mimetic-induced TNFα production [4]
Nc1ccccc1NC(=O)c1ccc(CNC(=O)OCc2cccnc2)cc1 [MS-275],increased,Primes,increased,,
"CCCC(=O)[O-].[Na+] [NaBu, Sodium butyrate]",,,,4-5 fold,increases

# Reference: US8426136B2, “Epigenetic modifications at TNFα as biomarkers for sensitivity to Smac mimetic-induced apoptosis” (Joyant Pharmaceuticals, Inc., priority 2009, dated 2013)
